In the supplement of paper PMC10307832:

Legend:
Test in all cases: relative viability (nuclei count vs DMSO), 5 days (fraction); higher = more cells survive
[1] = compound: CN1C=C(C2=CC=CC=C21)/C=C\3/C4=C(C=CC=N4)NC3=O + Cc1cc(Nc2cc(N3CCN(C)CC3)nc(Sc3ccc(NC(=O)C4CC4)cc3)n2)n[nH]1 [Tozasertib] (partner 0.1 µM)
How it was run: (§1)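 Lung cancer cell lines were pin-tool dosed in 1536-well plates on the day after seeding, with either a lone drug or a fixed anchor-drug dose plus five library-drug doses (not always all listed) in √10 steps. Nuclei were counted on 4× images after 5 days. Relative viability is the ratio of treated-well to vehicle-well nuclei counts, with each value a median of duplicate plates.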

Trametinib + Bortezomib = compound: CC(=O)Nc1cccc(-n2c(=O)n(C3CC3)c(=O)c3c(Nc4ccc(I)cc4F)n(C)c(=O)c(C)c32)c1 [Trametinib] + CC(C)C[C@H](NC(=O)[C@H](Cc1ccccc1)NC(=O)c1cnccn1)B(O)O [Bortezomib] (partner 0.002 µM)
How it was run: as §1

[2] = compound: CN1C=C(C2=CC=CC=C21)/C=C\3/C4=C(C=CC=N4)NC3=O + CC1(C)CCC(c2ccc(Cl)cc2)=C(CN2CCN(c3ccc(C(=O)NS(=O)(=O)c4ccc(N[C@H](CCN5CCOCC5)CSc5ccccc5)c(S(=O)(=O)C(F)(F)F)c4)cc3)CC2)C1 [Navitoclax] (partner 0.5 µM)
How it was run: as §1

Row | Cell Line | relative viability ([1]; first compound 0.02 µM) | relative viability ([1]; first compound 0.06325 µM) | relative viability ([1]; first compound 0.6325 µM) | relative viability ([1]; first compound 2 µM) | relative viability (Trametinib + Bortezomib; first compound 0.0025 µM) | relative viability (Trametinib + Bortezomib; first compound 0.007906 µM) | relative viability (Trametinib + Bortezomib; first compound 0.025 µM) | relative viability (Trametinib + Bortezomib; first compound 0.07906 µM) | relative viability (Trametinib + Bortezomib; first compound 0.25 µM) | relative viability ([2]; first compound 0.02 µM) | relative viability ([2]; first compound 0.06325 µM) | relative viability ([2]; first compound 0.2 µM) | relative viability ([2]; first compound 0.6325 µM) | relative viability ([2]; first compound 2 µM) | relative viability ([1]; first compound 0.2 µM)
1 | SW 900 | 0.468 | 0.531 | 0.452 | 0.389 | – | – | – | – | – | – | – | – | – | – | –
2 | PC-3 [JPC-3] | 0.863 | 0.897 | 0.746 | 0.913 | 0.862 | 0.815 | 0.837 | 0.716 | 0.262 | 0.782 | 0.743 | 0.788 | 0.812 | 0.683 | 0.92
3 | NCI-H1703 | – | – | – | – | 0.294 | 0.263 | 0.372 | 0.369 | 0.287 | 1.06 | 1.03 | 1.01 | 0.966 | 0.998 | –
4 | EPLC-272H | 0.193 | 0.276 | – | 0.283 | 1.02 | 0.841 | 0.516 | 0.737 | 0.157 | 1.37 | 0.988 | – | 1.27 | 0.944 | 0.244
5 | NCI-H1792 | – | – | – | – | 0.971 | 0.85 | 0.647 | 0.597 | 0.455 | 0.343 | 0.642 | 0.529 | – | 0.496 | –
6 | NCI-H2085 | 0.803 | 0.734 | 0.622 | 0.575 | 0.994 | 0.799 | 0.751 | 0.783 | 0.6 | 1.04 | 1.15 | 1.19 | 1.22 | 1.18 | 0.797
7 | LK-2 | – | – | 0.164 | 0.152 | – | – | – | – | – | – | 0.683 | 0.638 | 0.726 | 1.04 | –
8 | NCI-H1395 | 0.703 | 0.72 | 0.721 | 0.821 | – | – | – | – | – | 1.08 | 0.967 | – | 1.09 | 1.11 | 0.681
9 | ABC-1 | 0.173 | 0.18 | 0.173 | 0.183 | 0.301 | 0.299 | 0.255 | 0.251 | 0.235 | – | – | – | – | – | 0.172
10 | RERF-LC-KJ | 0.428 | 0.407 | 0.558 | 0.512 | 0.91 | 1.02 | 0.926 | 0.877 | 0.661 | 1.03 | 0.937 | 0.707 | 0.691 | 0.51 | 0.621
11 | LU99A | 0.252 | 0.264 | 0.257 | 0.256 | 1.08 | 1.21 | 0.815 | 0.726 | 0.407 | 0.86 | 0.849 | 0.857 | 0.865 | 0.79 | 0.278
12 | NCI-H650 | 0.643 | 0.674 | 0.829 | 0.757 | 1.06 | 1.15 | 0.791 | 0.729 | 0.276 | – | – | – | – | – | –
13 | NCI-H2347 | – | 0.421 | 0.512 | 0.681 | 1.08 | 0.818 | 0.338 | 0.389 | 0.337 | 0.826 | 0.859 | 0.743 | 0.764 | 0.834 | 0.556
14 | HARA | 0.0897 | 0.112 | 0.0723 | 0.0941 | 1.09 | 1.06 | 0.983 | 0.745 | 0.0924 | 1.09 | 1.15 | 1.04 | 1.17 | 1.17 | –
